Results published in patent US20160264593A1 (priority 2013, published 2016).
“And” between values parts separate entries of the source, which are not always exact repeats. Equal values may be shown once. “Also recorded” adds a separate entry of the source. Read-outs that look alike come from different tables or passages of the source.

Key:
[1] = tested on: PP2A; assay: PP2A activity in mouse livers after IP dosing (PP2A immunoprecipitation phosphatase assay, malachite green); type: in vivo, Balb/c mice; settings: for Average Conc. (group of 3 mice) / Average Relative Activity (group, vehicle = 100) / Conc. (phosphate, single reading, per mouse) / Mean Conc. (per mouse) / Mean Conc. less IgG blank (per mouse) / Relative Conc. (per mouse, to vehicle) / Relative PP2A Activity (per mouse, vehicle = 100): liver
Outline: (§1)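 Female Balb/c mice (6-8 weeks) were dosed IP with compound in 4% sodium bicarbonate; brain and liver were harvested 3 h and 6 h post-dose. PP2A was immunoprecipitated from 240 μg lysate with anti-PP2A, using normal IgG as control. Phosphatase activity on a threonine phosphopeptide was read by malachite green absorbance against a phosphate standard curve.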

[2] = tested on: lung cancer (A549) cells; assay: WST cell viability assay, A549; type: cell-based; settings: Homo sapiens, A549, read-out: IC50 A549
[3] = tested on: breast cancer (2LMP) cells; assay: WST cell viability assay, 2LMP
Excerpt: IC50 values were obtained for cytotoxicity against breast cancer (2LMP), glioblastoma (U-87) and lung cancer (A549) cells (See Table 5 and FIGS. 3-5).

[4] = tested on: glioblastoma (U-87) cells; assay: WST cell viability assay, U-87 MG; type: cell-based; settings: Homo sapiens, U-87 MG
[5] = tested on: PP2A; assay: PP2A activity in mouse brains after IP dosing (PP2A immunoprecipitation phosphatase assay, malachite green); type: in vivo, Balb/c mice; settings: for Average Conc. (group of 3 mice) / Average Relative Activity (group, vehicle = 100) / Conc. (phosphate, single reading, per mouse) / Mean Conc. (per mouse) / Mean Conc. less IgG blank (per mouse) / Relative Conc. (per mouse, to vehicle) / Relative PP2A Activity (per mouse, vehicle = 100): brain; for PP2A activity in brains as compared with vehicle: high doses IP
Outline: as §1

[6] = IP, dose and time not specified
[7] = high dose IP (mpk: 100 1.5, 113 2.2, 151 1.6, 157 2.0), 3 h
[8] = high dose IP (mpk: 100 1.5, 113 2.2, 151 1.6, 157 2.0), 6 h
[9] = low dose IP (mpk: 100 0.75, 113 1.1, 151 0.8, 153 0.85, 157 1.0), 3 h
[10] = low dose IP (mpk: 100 0.75, 113 1.1, 151 0.8, 153 0.85, 157 1.0), 6 h
[11] = high dose IP (mpk: 100 1.5, 113 2.2, 151 1.6, 153 1.7, 157 2.0), 3 h
[12] = high dose IP (mpk: 100 1.5, 113 2.2, 151 1.6, 153 1.7, 157 2.0), 6 h

## CCCCCCCOC(=O)C1C2CCC(O2)C1C(=O)N1CCN(C)CC1 (centres unmarked) [Compound 157, 3-(4-Methylpiperazine-1-carbonyl)-7-oxa-bicyclo[2,2,1]heptane-2-carboxylic acid heptyl ester]
[1]; [6]
  PP2A activity in the liver of mice (statement): inhibited PP2A activity
[1]; [7]
  Average Conc. (group of 3 mice): 234.28
  Average Relative Activity (group, vehicle = 100): 55.78
  Conc. (phosphate, single reading, per mouse): 344.85 and 360.53 and 257.33 and 287.81 and 202.46 and 225.54
  Mean Conc. (per mouse): 352.69 and 272.57 and 214
  Mean Conc. less IgG blank (per mouse): 307.22 and 227.09 and 168.52
  Relative Conc. (per mouse, to vehicle): 0.73 and 0.54 and 0.4
  Relative PP2A Activity (per mouse, vehicle = 100): 73.15 and 54.07 and 40.13
[1]; [8]
  Average Conc. (group of 3 mice): 232.03
  Average Relative Activity (group, vehicle = 100): 52.2
  Conc. (phosphate, single reading, per mouse): 266.91 and 213.78 and 382.3 and 411.92 and 190.7 and 199.41
  Mean Conc. (per mouse): 240.34 and 397.11 and 195.06
  Mean Conc. less IgG blank (per mouse): 194.87 and 351.63 and 149.58
  Relative Conc. (per mouse, to vehicle): 0.44 and 0.79 and 0.34
  Relative PP2A Activity (per mouse, vehicle = 100): 43.84 and 79.11 and 33.65
[1]; high dose IP, 6 h post treatment
  activity of PP2A in livers as compared with vehicle (statement): significantly inhibited
[1]; [9]
  Average Conc. (group of 3 mice): 328.84
  Average Relative Activity (group, vehicle = 100): 78.3
[1]; [10]
  Average Conc. (group of 3 mice): 359.62
  Average Relative Activity (group, vehicle = 100): 80.9
[2]
  IC50: > 100 µM
[3]; read-out: IC50 2LMP, WST-20131015 (first value of the cell)
  IC50: 92.2 µM
[3]; read-out: IC50 2LMP, WST-20131025 (second value of the cell)
  IC50: 96.4 µM
[4]; read-out: IC50 U-87 MG, WST-20131017 (first value of the cell)
  IC50: > 100 µM
[4]; read-out: IC50 U-87 MG, WST-20131024 (second value of the cell)
  IC50: > 100 µM
[5]; [6]
  PP2A activity in the brain of mice (statement): inhibited PP2A activity
[5]; [11]
  Average Conc. (group of 3 mice): 1343.13
  Average Relative Activity (group, vehicle = 100): 54.50
  Conc. (phosphate, single reading, per mouse): 1589.30 and 1726.49 and 1634.83 and 1576.29 and 896.81 and 863.27
  Mean Conc. (per mouse): 1657.89 and 1605.56 and 880.04
  Mean Conc. less IgG blank (per mouse): 1619.87 and 1567.53 and 842.01
  Relative Conc. (per mouse, to vehicle): 0.75 and 0.72 and 0.39
  Relative PP2A Activity (per mouse, vehicle = 100): 65.72 and 63.60 and 34.16
[5]; [12]
  Average Conc. (group of 3 mice): 1748.29
  Average Relative Activity (group, vehicle = 100): 62.95
  Conc. (phosphate, single reading, per mouse): 1929.55 and 2102.31 and 1375.88 and 1308.40 and 1958.00 and 2043.77
  Mean Conc. (per mouse): 2015.93 and 1342.14 and 2000.89
  Mean Conc. less IgG blank (per mouse): 1977.90 and 1304.11 and 1962.86
  Relative Conc. (per mouse, to vehicle): 0.81 and 0.53 and 0.80
  Relative PP2A Activity (per mouse, vehicle = 100): 71.22 and 46.96 and 70.67
[5]; high dose IP, 3 h
  activity of PP2A in brains (statement): most potent; also recorded: significantly inhibited; also recorded: more effectively than compound 100
[5]; high dose IP, 6 h
  activity of PP2A in brains (statement): most potent; also recorded: significantly inhibited; also recorded: more effectively than compound 100
[5]; 3 h post treatment
  PP2A activity in brains as compared with vehicle: 51%
[5]; 6 h post treatment
  PP2A activity in brains as compared with vehicle: 63%
[5]; [9]
  Average Conc. (group of 3 mice): 1523.35
  Average Relative Activity (group, vehicle = 100): 61.81
  Conc. (phosphate, single reading, per mouse): 1696.01 and 1732.18 and 1420.80 and 1346.00 and 1604.74 and 1568.56
  Mean Conc. (per mouse): 1714.09 and 1383.40 and 1586.65
  Mean Conc. less IgG blank (per mouse): 1676.07 and 1345.37 and 1548.63
  Relative Conc. (per mouse, to vehicle): 0.77 and 0.62 and 0.71
  Relative PP2A Activity (per mouse, vehicle = 100): 68.00 and 54.59 and 62.83
[5]; [10]
  Average Conc. (group of 3 mice): 1413.26
  Average Relative Activity (group, vehicle = 100): 50.88
  Conc. (phosphate, single reading, per mouse): 1975.68 and 1782.39 and 1408.40 and 1380.55 and 1075.87 and 1084.82
  Mean Conc. (per mouse): 1879.04 and 1394.48 and 1080.34
  Mean Conc. less IgG blank (per mouse): 1841.01 and 1356.45 and 1042.32
  Relative Conc. (per mouse, to vehicle): 0.75 and 0.55 and 0.43
  Relative PP2A Activity (per mouse, vehicle = 100): 66.29 and 48.84 and 37.53
[5]; low dose IP, 6 h
  activity of PP2A in brains (statement): most potent
